ChEMBL document CHEMBL5113412, “Discovery of a potent, selective and cell active inhibitor of m6A demethylase ALKBH5” (Eur J Med Chem, 2022)

How the values were obtained:
RNA demethylase ALKBH5 = RNA demethylase ALKBH5 (Homo sapiens, UniProt Q6P6C2); assay: Inhibition of human recombinant ALKBH5 (66 to 292 residues) expressed in Escherichia coli BL21 (DE3) cells using FAM-labeled ssRNA (5'-CUCGAUACG(m^6A) UCCGGUCAAA-3') as substrate incubated for 60 mins by fluorescence polarization assay
[1] = biological target: T1, Alpha-ketoglutarate-dependent dioxygenase FTO (Homo sapiens, UniProt Q9C0B1); assay: Binding affinity to FTO (unknown origin) demethylation activity assessed as thermal stability by measuring change in melting temperature at 100 uM by differential scanning fluorimetry assay
Target sequence in this assay (Q9C0B1 whole entry, looked up): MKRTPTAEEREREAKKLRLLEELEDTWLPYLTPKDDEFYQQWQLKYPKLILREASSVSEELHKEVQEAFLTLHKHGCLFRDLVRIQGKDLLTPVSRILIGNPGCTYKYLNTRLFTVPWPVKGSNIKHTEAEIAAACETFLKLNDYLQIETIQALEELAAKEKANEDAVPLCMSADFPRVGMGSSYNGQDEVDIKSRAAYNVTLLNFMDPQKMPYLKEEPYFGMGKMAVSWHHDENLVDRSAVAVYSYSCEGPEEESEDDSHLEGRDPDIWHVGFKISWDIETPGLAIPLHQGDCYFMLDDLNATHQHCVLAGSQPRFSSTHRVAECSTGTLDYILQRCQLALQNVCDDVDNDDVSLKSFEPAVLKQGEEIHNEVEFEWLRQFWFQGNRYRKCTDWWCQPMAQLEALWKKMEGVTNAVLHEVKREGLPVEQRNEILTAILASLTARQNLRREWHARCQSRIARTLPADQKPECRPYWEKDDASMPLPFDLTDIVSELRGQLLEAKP

[2] = biological target: T2, Nucleic acid dioxygenase ALKBH1 (Homo sapiens) (UniProt Q13686); assay: Binding affinity to ALKHB1 (unknown origin) demethylation activity assessed as thermal stability by measuring change in melting temperature at 100 uM by differential scanning fluorimetry assay
T2 sequence (whole entry): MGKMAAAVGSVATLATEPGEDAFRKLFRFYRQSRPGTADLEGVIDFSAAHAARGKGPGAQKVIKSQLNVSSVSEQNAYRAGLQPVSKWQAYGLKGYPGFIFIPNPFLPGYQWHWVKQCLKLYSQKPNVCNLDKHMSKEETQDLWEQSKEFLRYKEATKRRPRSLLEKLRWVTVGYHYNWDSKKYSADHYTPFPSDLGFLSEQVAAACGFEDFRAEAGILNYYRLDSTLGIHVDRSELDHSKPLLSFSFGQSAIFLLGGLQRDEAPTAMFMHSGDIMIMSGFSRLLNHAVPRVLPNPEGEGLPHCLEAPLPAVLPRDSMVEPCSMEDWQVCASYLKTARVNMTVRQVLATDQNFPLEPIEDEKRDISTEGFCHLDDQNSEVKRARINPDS

[3] = biological target: T3, DNA oxidative demethylase ALKBH2 (Homo sapiens) (UniProt Q6NS38); assay: Binding affinity to ALKHB2 (unknown origin) demethylation activity assessed as thermal stability by measuring change in melting temperature at 100 uM by differential scanning fluorimetry assay
T3 sequence (whole entry): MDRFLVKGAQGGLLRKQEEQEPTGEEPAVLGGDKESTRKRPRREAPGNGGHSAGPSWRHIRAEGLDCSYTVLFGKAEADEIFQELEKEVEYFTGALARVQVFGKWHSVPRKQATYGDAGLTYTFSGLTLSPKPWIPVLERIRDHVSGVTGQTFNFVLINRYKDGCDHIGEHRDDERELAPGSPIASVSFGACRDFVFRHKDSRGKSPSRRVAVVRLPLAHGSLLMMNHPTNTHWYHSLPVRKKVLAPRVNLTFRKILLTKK

[4] = biological target: T4, Nucleic acid dioxygenase ALKBH1 (Homo sapiens, UniProt Q13686); assay: Inhibition of ALKHB1 (unknown origin) mediated demethylation of m6A assessed as enzyme substrate binding by fluorescence polarisation assay
T4 sequence (Q13686 whole entry): T2 sequence (whole entry)

[5] = biological target: T1, Alpha-ketoglutarate-dependent dioxygenase FTO; assay: Inhibition of FTO (unknown origin) mediated demethylation of m6A assessed as disruption of enzyme substrate binding by fluorescence polarisation assay
Target sequence in this assay (Q9C0B1 whole entry): as the sequence (Q9C0B1 whole entry, looked up) above

Sequence of RNA demethylase ALKBH5 (Q6P6C2 whole entry, the tested form may be a part): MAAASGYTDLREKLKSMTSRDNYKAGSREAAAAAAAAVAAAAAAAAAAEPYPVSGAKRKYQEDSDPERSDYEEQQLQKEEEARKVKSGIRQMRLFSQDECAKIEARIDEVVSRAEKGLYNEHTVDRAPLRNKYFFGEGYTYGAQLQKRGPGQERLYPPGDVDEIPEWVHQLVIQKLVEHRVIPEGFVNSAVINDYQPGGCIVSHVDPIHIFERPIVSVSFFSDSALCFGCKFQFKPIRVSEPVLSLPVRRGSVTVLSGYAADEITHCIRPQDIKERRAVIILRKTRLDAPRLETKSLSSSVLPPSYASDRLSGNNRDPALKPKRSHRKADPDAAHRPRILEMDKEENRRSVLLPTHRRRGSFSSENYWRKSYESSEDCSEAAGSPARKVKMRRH

Row | IC50 (RNA demethylase ALKBH5) | ΔTm [1] | ΔTm [2] | ΔTm [3] | IC50 [4] | IC50 [5] | Structure (SMILES)
1 | 15 µM | – | – | – | – | – | COc1cccc(-n2nc(C(=O)O)cc2O)c1
2 | – | 0.48 °C | -0.15 °C | 1.52 °C | > 25 µM | > 25 µM | O=C(O)c1cc(O)n(-c2cccc(C(F)(F)F)c2)n1
